The values that follow come from ChEMBL document CHEMBL4507291 (2021).

Test [1] concerns the target Tyrosine-protein kinase Blk (Homo sapiens) (UniProt P51451).
Test [2] concerns the target Cyclin-dependent kinase 19 (Homo sapiens) (UniProt Q9BWU1).
In test [3] the target is Cyclin-dependent kinase 9 (Homo sapiens) (UniProt P50750).
Test [4] deals with Citron Rho-interacting kinase (Homo sapiens) (UniProt O14578).
Test [5] deals with Casein kinase I isoform epsilon (Homo sapiens) (UniProt P49674).
For test [6], the target named is Death-associated protein kinase 3 (Homo sapiens) (UniProt O43293).
Test [7] has as its system Epidermal growth factor receptor (Homo sapiens), P00533 [UNDEFINED MUTATION].
For test [8], the target named is T1, Ephrin type-A receptor 1 (Homo sapiens) (UniProt P21709).
T1 sequence (whole entry): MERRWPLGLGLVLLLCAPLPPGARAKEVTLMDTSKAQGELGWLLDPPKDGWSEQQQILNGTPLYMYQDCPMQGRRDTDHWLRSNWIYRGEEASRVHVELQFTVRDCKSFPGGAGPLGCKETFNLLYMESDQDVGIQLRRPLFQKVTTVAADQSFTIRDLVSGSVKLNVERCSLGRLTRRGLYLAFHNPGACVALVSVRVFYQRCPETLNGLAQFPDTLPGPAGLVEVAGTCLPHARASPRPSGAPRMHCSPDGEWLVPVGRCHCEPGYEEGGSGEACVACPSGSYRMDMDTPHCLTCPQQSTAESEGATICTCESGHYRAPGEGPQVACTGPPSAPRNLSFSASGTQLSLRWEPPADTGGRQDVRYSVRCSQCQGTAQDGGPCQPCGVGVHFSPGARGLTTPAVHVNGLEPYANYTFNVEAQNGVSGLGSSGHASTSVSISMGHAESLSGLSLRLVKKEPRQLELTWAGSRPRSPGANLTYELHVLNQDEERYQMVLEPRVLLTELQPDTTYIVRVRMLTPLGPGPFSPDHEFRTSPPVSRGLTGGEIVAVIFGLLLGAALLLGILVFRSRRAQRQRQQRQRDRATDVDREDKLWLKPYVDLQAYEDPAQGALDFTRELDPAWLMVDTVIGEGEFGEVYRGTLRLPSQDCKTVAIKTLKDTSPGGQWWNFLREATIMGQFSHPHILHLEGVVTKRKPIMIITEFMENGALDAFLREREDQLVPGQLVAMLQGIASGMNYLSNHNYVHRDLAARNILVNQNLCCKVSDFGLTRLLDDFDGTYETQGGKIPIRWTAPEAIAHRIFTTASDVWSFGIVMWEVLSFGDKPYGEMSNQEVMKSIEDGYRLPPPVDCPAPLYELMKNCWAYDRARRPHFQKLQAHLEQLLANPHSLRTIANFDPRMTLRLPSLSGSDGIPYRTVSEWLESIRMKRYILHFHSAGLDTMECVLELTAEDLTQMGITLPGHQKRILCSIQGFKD

Test [9] deals with T2, Ephrin type-A receptor 3 (Homo sapiens) (UniProt P29320).
T2 sequence (whole entry): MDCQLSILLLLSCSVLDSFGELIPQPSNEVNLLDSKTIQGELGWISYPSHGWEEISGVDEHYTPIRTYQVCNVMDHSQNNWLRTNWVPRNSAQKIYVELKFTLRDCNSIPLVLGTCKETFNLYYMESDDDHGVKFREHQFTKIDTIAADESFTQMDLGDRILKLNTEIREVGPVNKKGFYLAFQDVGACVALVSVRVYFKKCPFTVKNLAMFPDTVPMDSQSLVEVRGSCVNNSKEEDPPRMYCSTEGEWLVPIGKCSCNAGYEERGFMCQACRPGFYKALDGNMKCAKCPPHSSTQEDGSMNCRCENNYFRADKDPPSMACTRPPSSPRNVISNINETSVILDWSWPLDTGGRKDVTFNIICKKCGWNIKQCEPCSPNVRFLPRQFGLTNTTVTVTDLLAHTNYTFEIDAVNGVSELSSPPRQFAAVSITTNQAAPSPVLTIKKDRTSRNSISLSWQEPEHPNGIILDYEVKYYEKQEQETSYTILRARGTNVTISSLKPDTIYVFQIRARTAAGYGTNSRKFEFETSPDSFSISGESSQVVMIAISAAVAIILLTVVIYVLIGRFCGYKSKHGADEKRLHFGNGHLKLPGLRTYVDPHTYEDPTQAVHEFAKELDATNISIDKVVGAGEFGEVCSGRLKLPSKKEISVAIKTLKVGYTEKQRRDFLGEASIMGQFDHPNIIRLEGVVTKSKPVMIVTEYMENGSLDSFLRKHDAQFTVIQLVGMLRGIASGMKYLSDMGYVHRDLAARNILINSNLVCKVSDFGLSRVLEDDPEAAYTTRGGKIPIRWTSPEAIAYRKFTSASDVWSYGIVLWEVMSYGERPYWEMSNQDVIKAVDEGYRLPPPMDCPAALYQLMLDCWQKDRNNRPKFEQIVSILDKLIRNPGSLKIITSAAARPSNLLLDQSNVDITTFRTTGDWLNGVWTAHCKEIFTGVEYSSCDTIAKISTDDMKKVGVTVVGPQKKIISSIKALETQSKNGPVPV

Test [10] concerns the target Mitogen-activated protein kinase 3 (Homo sapiens) (UniProt P27361).
Test [11] concerns the target Tyrosine-protein kinase Fer (Homo sapiens) (UniProt P16591).
Test [12] has as its system Receptor-type tyrosine-protein kinase FLT3 (Homo sapiens), P36888 [N841I].
Test [13] concerns the target Cyclin-G-associated kinase (Homo sapiens) (UniProt O14976).
Test [14] concerns the target Tyrosine-protein kinase JAK2 (Homo sapiens) (UniProt O60674).
Test [15] addresses Protein kinase C eta type (Homo sapiens) (UniProt P24723).
In test [16] the target is Ribosomal protein S6 kinase alpha-6 (Homo sapiens) (UniProt Q9UK32).
Test [17] has as its target Tyrosine-protein kinase Srms (Homo sapiens) (UniProt Q9H3Y6).
In test [18] the target is Tyrosine-protein kinase SYK (Homo sapiens) (UniProt P43405).
For test [19], the target named is 5-hydroxytryptamine receptor 5A (Homo sapiens) (UniProt P47898). Conditions: Compound concentration 10.0 uM.
Where [20] appears, read: Compound concentration 100.0 nM.
The mark [21] stands for this setting: Compound concentration 1000.0 nM.

Epidermal growth factor receptor (Homo sapiens), P00533 [UNDEFINED MUTATION], sequence (P00533 whole entry, looked up, change not shown): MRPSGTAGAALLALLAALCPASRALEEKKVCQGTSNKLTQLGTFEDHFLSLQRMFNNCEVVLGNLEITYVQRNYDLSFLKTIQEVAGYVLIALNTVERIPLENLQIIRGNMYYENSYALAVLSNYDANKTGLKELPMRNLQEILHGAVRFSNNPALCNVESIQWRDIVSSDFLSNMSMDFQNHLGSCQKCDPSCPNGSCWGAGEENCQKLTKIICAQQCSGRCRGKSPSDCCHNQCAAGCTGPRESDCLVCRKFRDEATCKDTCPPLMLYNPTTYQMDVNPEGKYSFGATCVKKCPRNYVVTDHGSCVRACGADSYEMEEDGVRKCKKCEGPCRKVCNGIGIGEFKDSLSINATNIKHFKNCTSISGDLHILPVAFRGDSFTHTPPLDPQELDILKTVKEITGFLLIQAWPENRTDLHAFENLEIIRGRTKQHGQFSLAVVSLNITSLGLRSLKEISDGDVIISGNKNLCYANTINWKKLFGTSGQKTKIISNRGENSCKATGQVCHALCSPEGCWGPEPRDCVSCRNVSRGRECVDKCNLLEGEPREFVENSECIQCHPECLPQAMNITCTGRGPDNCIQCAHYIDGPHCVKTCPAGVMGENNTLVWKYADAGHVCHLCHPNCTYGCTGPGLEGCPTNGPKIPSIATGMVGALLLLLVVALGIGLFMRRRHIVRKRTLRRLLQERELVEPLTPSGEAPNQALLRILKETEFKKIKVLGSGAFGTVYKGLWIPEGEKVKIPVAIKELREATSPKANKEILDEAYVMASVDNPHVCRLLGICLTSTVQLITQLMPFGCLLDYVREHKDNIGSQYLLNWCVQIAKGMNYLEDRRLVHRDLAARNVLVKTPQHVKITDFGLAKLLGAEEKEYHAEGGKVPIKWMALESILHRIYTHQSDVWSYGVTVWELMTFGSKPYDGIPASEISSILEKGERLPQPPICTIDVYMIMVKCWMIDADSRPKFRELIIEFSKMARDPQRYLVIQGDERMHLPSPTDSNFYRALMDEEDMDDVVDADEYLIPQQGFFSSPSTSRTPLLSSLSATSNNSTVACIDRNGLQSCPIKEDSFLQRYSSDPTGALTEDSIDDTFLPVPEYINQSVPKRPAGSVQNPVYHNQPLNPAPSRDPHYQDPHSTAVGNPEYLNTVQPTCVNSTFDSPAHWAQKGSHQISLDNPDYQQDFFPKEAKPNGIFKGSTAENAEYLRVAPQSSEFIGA
Tyrosine-protein kinase Srms (Homo sapiens), sequence (Q9H3Y6 whole entry): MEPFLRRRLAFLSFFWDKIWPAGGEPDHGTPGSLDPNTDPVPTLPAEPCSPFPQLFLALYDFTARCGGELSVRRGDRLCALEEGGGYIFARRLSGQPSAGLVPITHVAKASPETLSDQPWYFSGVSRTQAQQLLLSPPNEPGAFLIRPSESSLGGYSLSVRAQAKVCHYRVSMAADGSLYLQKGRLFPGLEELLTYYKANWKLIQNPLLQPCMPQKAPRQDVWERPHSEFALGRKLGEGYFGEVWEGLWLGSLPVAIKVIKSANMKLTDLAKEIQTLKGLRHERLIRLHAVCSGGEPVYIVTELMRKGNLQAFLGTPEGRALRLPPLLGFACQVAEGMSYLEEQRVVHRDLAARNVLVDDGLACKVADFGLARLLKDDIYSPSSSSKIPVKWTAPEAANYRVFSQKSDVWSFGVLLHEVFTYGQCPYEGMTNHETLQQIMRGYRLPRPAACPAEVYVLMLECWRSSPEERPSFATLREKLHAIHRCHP
Tyrosine-protein kinase Fer (Homo sapiens), sequence (P16591 whole entry, looked up): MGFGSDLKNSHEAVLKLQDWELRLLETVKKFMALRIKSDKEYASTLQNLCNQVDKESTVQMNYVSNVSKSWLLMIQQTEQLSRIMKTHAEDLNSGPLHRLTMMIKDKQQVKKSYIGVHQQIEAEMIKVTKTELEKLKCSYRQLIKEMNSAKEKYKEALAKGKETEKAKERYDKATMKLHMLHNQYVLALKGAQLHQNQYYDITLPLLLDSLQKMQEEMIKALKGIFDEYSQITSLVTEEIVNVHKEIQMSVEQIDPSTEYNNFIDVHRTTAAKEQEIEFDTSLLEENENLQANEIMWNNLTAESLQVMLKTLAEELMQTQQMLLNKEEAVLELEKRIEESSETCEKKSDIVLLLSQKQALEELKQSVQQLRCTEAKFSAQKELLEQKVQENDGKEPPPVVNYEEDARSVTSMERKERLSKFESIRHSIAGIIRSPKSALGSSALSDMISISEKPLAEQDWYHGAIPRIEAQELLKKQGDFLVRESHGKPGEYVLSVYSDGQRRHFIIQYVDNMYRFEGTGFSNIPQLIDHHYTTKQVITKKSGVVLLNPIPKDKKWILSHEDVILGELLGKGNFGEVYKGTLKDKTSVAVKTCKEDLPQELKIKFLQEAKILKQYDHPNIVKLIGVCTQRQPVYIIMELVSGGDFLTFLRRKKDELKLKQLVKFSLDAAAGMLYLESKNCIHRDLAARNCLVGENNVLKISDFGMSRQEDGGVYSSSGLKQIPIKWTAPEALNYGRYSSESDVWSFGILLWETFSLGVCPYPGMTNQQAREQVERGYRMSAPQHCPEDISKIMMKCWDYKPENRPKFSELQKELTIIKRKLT
Tyrosine-protein kinase JAK2 (Homo sapiens), sequence (O60674 whole entry): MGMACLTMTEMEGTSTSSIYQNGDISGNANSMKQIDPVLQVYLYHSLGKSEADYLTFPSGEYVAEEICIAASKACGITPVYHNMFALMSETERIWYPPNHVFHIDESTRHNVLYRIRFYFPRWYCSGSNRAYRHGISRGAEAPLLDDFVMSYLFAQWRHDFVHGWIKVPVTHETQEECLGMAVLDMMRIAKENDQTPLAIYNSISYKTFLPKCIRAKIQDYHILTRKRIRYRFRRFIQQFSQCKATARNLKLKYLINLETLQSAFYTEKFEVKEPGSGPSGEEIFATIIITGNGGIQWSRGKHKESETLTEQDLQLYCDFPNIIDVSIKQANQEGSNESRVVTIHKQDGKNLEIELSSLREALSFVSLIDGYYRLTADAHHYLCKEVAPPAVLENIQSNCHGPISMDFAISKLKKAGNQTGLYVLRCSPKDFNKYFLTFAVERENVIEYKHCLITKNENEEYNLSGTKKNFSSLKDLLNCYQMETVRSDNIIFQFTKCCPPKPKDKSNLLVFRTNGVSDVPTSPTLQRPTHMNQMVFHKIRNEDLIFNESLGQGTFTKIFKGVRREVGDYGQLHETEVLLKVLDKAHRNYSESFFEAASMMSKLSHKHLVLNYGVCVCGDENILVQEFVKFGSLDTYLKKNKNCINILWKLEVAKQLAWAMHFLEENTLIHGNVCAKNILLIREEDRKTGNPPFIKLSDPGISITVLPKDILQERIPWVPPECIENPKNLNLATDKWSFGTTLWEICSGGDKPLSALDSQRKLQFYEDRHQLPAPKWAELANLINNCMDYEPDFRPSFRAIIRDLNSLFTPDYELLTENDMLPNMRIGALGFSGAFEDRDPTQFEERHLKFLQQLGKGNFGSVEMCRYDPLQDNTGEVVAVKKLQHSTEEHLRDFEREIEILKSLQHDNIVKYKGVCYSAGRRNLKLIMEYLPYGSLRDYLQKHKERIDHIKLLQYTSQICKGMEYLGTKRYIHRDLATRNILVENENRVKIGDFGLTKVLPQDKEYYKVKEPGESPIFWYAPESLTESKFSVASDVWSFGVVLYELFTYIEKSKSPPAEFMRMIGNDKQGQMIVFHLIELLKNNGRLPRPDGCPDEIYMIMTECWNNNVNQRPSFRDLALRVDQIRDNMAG
Cyclin-dependent kinase 9 (Homo sapiens), sequence (P50750 whole entry): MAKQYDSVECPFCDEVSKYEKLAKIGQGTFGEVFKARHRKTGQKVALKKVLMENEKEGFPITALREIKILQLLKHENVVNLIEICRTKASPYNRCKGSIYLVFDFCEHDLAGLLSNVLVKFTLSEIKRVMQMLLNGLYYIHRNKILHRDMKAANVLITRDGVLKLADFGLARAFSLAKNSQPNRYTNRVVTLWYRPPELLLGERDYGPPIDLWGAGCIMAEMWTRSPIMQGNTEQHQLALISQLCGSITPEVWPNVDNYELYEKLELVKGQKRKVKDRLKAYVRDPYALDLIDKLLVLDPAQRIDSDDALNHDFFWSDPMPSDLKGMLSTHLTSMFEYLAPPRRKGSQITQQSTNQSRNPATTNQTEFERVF
Mitogen-activated protein kinase 3 (Homo sapiens), sequence (P27361 whole entry): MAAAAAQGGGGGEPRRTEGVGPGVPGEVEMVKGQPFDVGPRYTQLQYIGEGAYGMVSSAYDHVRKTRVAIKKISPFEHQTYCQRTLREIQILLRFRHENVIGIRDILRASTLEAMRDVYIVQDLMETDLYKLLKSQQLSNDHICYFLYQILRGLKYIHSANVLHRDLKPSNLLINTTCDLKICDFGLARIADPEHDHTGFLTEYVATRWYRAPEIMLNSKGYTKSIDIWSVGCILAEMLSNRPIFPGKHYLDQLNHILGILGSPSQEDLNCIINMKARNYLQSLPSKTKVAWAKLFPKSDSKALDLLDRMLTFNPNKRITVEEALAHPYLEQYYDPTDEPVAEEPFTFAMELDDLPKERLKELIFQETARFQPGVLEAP
Tyrosine-protein kinase Blk (Homo sapiens), sequence (P51451 2-505 limits assumed): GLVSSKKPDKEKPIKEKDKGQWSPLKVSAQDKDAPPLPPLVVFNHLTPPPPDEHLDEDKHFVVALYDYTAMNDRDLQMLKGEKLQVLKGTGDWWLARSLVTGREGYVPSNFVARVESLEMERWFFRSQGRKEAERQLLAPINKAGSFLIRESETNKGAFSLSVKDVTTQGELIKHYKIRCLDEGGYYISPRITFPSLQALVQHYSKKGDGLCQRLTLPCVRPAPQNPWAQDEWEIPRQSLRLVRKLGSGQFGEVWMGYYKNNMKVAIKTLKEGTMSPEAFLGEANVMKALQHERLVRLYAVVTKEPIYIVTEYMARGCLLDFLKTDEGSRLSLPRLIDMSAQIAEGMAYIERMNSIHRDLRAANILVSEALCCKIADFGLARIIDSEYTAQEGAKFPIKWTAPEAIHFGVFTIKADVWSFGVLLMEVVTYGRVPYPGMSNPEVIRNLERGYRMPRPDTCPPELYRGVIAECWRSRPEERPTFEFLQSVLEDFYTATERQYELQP

Broadly, the inhibition is the change of the read-out against control, counted positive when it falls. `C[C@@H]1CN(c2cc(-c3n[nH]c4ccc(OC5(C)CC5)cc34)ncn2)C[C@H](C)O1` [MLi-2]: the residual activity in test [1] (setting [20]) was 83%; in test [2] (setting [20]), 70%; in test [3] (setting [20]), 80%; in test [4] (setting [20]), 69%; in [5] (setting [20]) it was 100%; in test [6] (setting [20]), 96%. The residual activity was 73% in [7] (setting [20]); 76% in test [8] (setting [20]); 93% in test [9] (setting [20]); 87% in test [10] (setting [20]); 86% in test [11] (setting [20]); 46% in [12] (setting [20]). The residual activity was 86% in test [13] (setting [20]); 77% in test [14] (setting [20]); 92% in test [15] (setting [20]); 85% in [16] (setting [20]); 59% in test [17] (setting [20]); 96% in [18] (setting [20]). For the same compound, in [19], the inhibition was -4.76%.

For `C[C@@H]1CN(c2cc(-c3nn(C)c4ccc(OC5(C)CC5)cc34)ncn2)C[C@H](C)O1` [MLi-2-NC], the residual activity is 95% in test [1] (setting [21]); 92% in test [2] (setting [21]); 84% in test [3] (setting [21]); 100% in test [4] (setting [21]); 100% in test [5] (setting [21]); 89% in test [6] (setting [21]). The residual activity in test [7] (setting [21]) is 97%; in test [8] (setting [21]), 100%; in test [9] (setting [21]), 68%; in test [10] (setting [21]), 100%; in [11] (setting [21]), 100%; in test [12] (setting [21]), 85%. In addition, the residual activity in test [13] (setting [21]) is 86%; in test [14] (setting [21]), 55%; in [15] (setting [21]), 100%; in test [16] (setting [21]), 79%; in [17] (setting [21]), 83%; in [18] (setting [21]) it was 89%. Also, in test [19], the inhibition was -6.76%.
